Results: patent publication US20140179681A1, “METHODS AND COMPOSITIONS OF TARGETED DRUG DEVELOPMENT” (priority 2010, published 2014)
Counter-ions that a name gives are not always drawn.

Biological target: T1, EGFR (Homo sapiens, UniProt P00533)
T1 construct: host or cells: A431
Test: EGFR in-cell Western (ICW) screening protocol (EGFR inhibition assay)
Format: cell-based
Design: ICW 1 / ICW 2 / ICW Avg: unit not given here
Conditions: for ICW Avg / ICW 1 / ICW 2: ICW assay; for ICW Avg: average of runs 1 and 2; for ICW 1: run 1; for ICW 2: run 2; for ICW Screen: Table 11, % Inhibition of EGF dependent EGFR phosphorylation in A431 cells, compound 125 μM in assay
Description: The following example describes general EGFR in-cell Western (ICW) screening protocol. Methods are according to Chen et al. (2005) Analytical Biochemistry 338, 136-142 (incorporated herein by reference), except as otherwise noted.
Cell Plates: A431 cells (ATCC # CRL-1555) were grown in Dulbecco's Modified Eagle Medium (DMEM; ATCC #30-2002) supplemented with 10% fetal bovine serum, 105 units/ml pen/strep (Invitrogen #15140155) and 2.1 mM L-glutamine (ATCC #30-2214). Cells were seeded into 96 well tissue culture plates (BD Falcon #353948) at a density of 30,000 cells per well and incubated at 37° C. with 5% CO2 overnight. Two cell plates were prepared for each compound plate.
Serum Starvation: The cells were serum starved prior to compound addition. The media was removed by aspiration and the cells washed with PBS (200 μl/well; Invitrogen #20012-027). The PBS was removed by aspiration and replaced with 200 μl of DMEM (ATCC #30-2002) supplemented with 105 units/ml pen/strep (Invitrogen #15140155) and 2.1 mM 1-glutamine (ATCC #30-2214). The cell plates were incubated at 37° C./5% CO2 for 2 hours.
Compound Plate Preparation: The test compounds were solvated in 100% DMSO (Sigma #472301-2L) at a concentration of 25 mM. Compounds found not to be completely soluble in 100% DMSO at 25 mM were diluted to 10 mM with 100% DMSO and TFA (Fluka #91699) added to a final concentration of 0.2%. 40 μl of test compound was added to the appropriate well of a 96 well plate (Falcon #351190). As controls, 6 μM EGFR kinase inhibitor PD168393 (EMD/Calbiochem #513033) in 100% DMSO and DMSO alone were added to various wells. Prepared compound plates were stored at RT prior to use and at 4° C. long term.
Compound Dilution Plate Preparation: 250 μl of DMEM supplemented with 1 mg/ml BSA (Sigma A3059-10G) was added to the appropriate wells of a 96 well plate to prepare the compound dilution plates. Using a multichannel pipettor, 1.25 μl of compound from the compound plate was transferred into the compound dilution plate.
Compound Addition: The starve media was removed from the cell plates by aspiration. Using a multichannel pipettor, the compound dilution plates were mixed by pipetting up and down three times. 50 μl of mixed, diluted compound was added to each of two rows/columns on each of two cell plates. The cell plates with compound were incubated at 37° C./5% CO2 for 4 hours.
EGF Addition: 20 ng/ml EGF (Upstate #01-107) was prepared in DMEM supplemented with 1 mg/ml BSA. 50 μl of 20 or 0 ng/ml EGF was added to the appropriate wells without the removal of compound. The compound and EGF were mixed by pipetting up and down three times. The plates were incubated at 37° C./5% CO2 for 10 min. In some screening assays the final concentration of EGF used for simulation was 6.6, or 12.5 ng/ml rather than 10 ng/ml.
Fixation and Triton Washing: The EGF+compound was removed by aspiration and 150 μl of freshly prepared Fixation Solution (1×PBS, Sigma P3813-10PK, and 4% Formaldehyde, Pierce #28908) was immediately added. The plates were incubated at RT for 20 min without shaking. The Fixation Solution was removed by aspiration and the plates washed four times with 200 μl each of Triton Wash Solution (1×PBS, Sigma P3813-10PK, and 0.1% Triton X-100, T8787-50ML) for 5 min with gentle shaking.
Blocking and Probing: Following the last Triton Wash, the plates were blocked for 1.5 h at RT with shaking using 150 μl of Odyssey Blocking Buffer (LI-COR #927-40000). The block was removed by aspiration and 50 μl of diluted primary Ab mix was added. The plates were incubated at 4° C. overnight with gentle shaking. The plates were washed five times with 200 μl of PBST (1×PBS, Sigma P3813-10PK, and 0.1% Tween-20, Sigma P9416-50ML) for 5 min each with shaking 50 μl of diluted secondary Ab mix was added and the plates incubated at RT for 1 h with shaking. The plates were washed 5× with 200 μl of PBST for 5 min each with shaking. […]

T1 sequence (P00533 25-1210): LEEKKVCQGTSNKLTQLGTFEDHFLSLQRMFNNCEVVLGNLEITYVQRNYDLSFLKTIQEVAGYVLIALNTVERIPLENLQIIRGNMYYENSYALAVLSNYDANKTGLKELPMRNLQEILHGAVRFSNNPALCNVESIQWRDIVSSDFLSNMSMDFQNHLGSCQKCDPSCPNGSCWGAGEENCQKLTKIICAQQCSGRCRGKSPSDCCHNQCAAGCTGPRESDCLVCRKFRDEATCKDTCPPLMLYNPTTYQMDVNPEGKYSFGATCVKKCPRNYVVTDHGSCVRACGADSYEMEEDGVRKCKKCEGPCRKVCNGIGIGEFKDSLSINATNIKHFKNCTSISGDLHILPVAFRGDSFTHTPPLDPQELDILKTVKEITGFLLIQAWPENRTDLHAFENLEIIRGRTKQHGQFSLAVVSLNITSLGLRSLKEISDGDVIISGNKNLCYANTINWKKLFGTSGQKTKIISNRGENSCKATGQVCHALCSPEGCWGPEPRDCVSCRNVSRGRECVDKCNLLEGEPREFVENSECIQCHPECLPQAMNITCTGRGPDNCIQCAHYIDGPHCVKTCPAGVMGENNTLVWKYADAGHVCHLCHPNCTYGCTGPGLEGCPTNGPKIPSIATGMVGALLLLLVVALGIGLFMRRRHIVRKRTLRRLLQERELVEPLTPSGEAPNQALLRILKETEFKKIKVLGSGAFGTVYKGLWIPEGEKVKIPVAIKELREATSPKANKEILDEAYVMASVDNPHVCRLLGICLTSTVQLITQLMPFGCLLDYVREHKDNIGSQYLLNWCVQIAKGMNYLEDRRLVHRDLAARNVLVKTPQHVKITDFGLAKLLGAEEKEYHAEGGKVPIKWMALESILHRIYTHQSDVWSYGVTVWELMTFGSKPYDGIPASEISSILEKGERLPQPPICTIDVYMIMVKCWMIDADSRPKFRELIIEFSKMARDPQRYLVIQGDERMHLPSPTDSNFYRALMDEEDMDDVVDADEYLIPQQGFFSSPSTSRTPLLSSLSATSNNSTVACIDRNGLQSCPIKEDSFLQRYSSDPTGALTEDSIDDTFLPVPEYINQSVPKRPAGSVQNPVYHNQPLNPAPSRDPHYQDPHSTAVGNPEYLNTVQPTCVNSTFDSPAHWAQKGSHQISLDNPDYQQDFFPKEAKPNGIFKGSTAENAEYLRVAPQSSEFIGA

| ICW Screen (ICW Inhibition) | SMILES | also measured |
| --- | --- | --- |
|  | Cc1cc(C)c2nc(Nc3nc4c(c(=O)[nH]3)CCCC4)nc(C)c2c1 [11483 + TFA] | ICW Avg: 29.27; ICW 1: 29.55; ICW 2: 28.99 |
|  | Cc1cc(C)c2nc(Nc3nc(C)cc(=O)[nH]3)nc(C)c2c1 [11607 + TFA] | ICW Avg: 42.71; ICW 1: 43.69; ICW 2: 41.73 |
| 29.295 | CC(=O)NC(=S)Nc1ccc(S(=O)(=O)N2CCc3ccccc32)cc1 [AD4-10103] |  |
|  | Cc1cc2oc(=O)cc(CN3CCN(CCO)CC3)c2cc1C [AD4-10176] | ICW Screen: 42.066 |
|  | CCc1ccc2oc(=O)cc(CN3CCN(CCO)CC3)c2c1 [AD4-10178] | ICW Screen: 34.907 |
| 25.347 | COc1ccc(CC(=O)NC(=S)Nc2ccc(S(=O)(=O)NCCc3ccccc3)cc2)cc1 [AD4-10622] |  |
| 28.127 | COc1cc(NS(=O)(=O)c2ccc(NC(=S)NC(=O)CCc3ccc(F)cc3)cc2)ncn1 [AD4-11384] |  |
| 28.892 | CCc1nnc(NS(=O)(=O)c2ccc(NC(=S)NC(=O)C34CC5CC(CC(C5)C3)C4)cc2)s1 [AD4-11385] |  |
| 26.301 | COc1ccc(CC(=O)NC(=S)Nc2ccc(S(=O)(=O)Nc3nc(C)cc(C)n3)cc2)cc1 [AD4-11395] |  |
| 25.557 | Cc1ccc(OCC(=O)NC(=S)Nc2ccc(S(=O)(=O)N3CCOCC3)cc2)c(Br)c1 [AD4-11401] |  |
| 26.497 | COc1cc(NS(=O)(=O)c2ccc(NC(=S)NC(=O)CCc3ccccc3)cc2)nc(OC)n1 [AD4-11405] |  |
| 26.851 | COc1ccc(CC(=O)NC(=S)Nc2ccc(S(=O)(=O)N3CCOCC3)cc2)cc1 [AD4-11406] |  |
| 27.585 | CCN(c1ccccc1)S(=O)(=O)c1ccc(NC(=S)NC(=O)C2CCCCC2)cc1 [AD4-11407] |  |
| 28.101 | CN(Cc1ccccc1)S(=O)(=O)c1ccc(NC(=S)NC(=O)C2CCCCC2)cc1 [AD4-11410] |  |
| 30.052 | CN1CCN(S(=O)(=O)c2ccc(NC(=S)NC(=O)c3ccccc3)cc2)CC1 [AD4-11420] |  |
| 28.422 | CN1CCN(S(=O)(=O)c2ccc(NC(=S)NC(=O)CCc3ccccc3)cc2)CC1 [AD4-11424] |  |
| 26.098 | COc1ccc(NS(=O)(=O)c2ccc(NC(=S)NC(=O)C3CCCC3)cc2)cc1 [AD4-11523] |  |
| 27.431 | COc1cc(OC)nc(NS(=O)(=O)c2ccc(NC(=S)NC(=O)C3CCCC3)cc2)n1 [AD4-11536] |  |
| 30.242 | CCc1nnc(NS(=O)(=O)c2ccc(NC(=S)NC(=O)/C=C/c3ccccc3)cc2)s1 [AD4-11861] |  |
| 27.36 | Cc1cc(NS(=O)(=O)c2ccc(NC(=S)NC(=O)/C=C/c3cccs3)cc2)no1 [AD4-11863] |  |

| ICW Screen (ICW Inhibition) | SMILES | also measured |
| --- | --- | --- |
| 25.689 | CCc1nnc(NS(=O)(=O)c2ccc(NC(=S)NC(=O)/C=C/c3ccc(C)cc3)cc2)s1 [AD4-11879] |  |
| 26.355 | COc1ccc(NS(=O)(=O)c2ccc(NC(=S)NC(=O)/C=C/c3ccccc3)cc2)nn1 [AD4-11888] |  |
| 27.176 | CN1CCN(S(=O)(=O)c2ccc(NC(=S)NC(=O)C3CCCC3)cc2)CC1 [AD4-11973] |  |
| 26.918 | CC(C)(C)NS(=O)(=O)c1ccc(NC(=S)NC(=O)C2CCC2)cc1 [AD4-11976] |  |
| 25.368 | CN(C1CCCCC1)S(=O)(=O)c1ccc(NC(=S)NC(=O)C2CC2)cc1 [AD4-11986] |  |
| 27.18 | COc1ccc(NS(=O)(=O)c2ccc(NC(=S)NC(=O)C(C)(C)C)cc2)cc1 [AD4-11994] |  |
| 25.611 | CCOc1ccc(NS(=O)(=O)c2ccc(NC(=S)NC(=O)CC(C)C)cc2)cc1 [AD4-12014] |  |
| 29.977 | CN(Cc1ccccc1)S(=O)(=O)c1ccc(NC(=S)NC(=O)C2CCCC2)cc1 [AD4-12039] |  |
| 28.852 | CC(C)C(=O)NC(=S)Nc1ccc(S(=O)(=O)N(C)Cc2ccccc2)cc1 [AD4-12051] |  |
| 27.713 | CC(=O)NS(=O)(=O)c1ccc(NC(=S)NC(=O)Cc2cccc3ccccc23)cc1 [AD4-12071] |  |
| 25.019 | C=CCN(CC=C)S(=O)(=O)c1ccc(NC(=S)NC(=O)/C=C/c2ccccc2)cc1 [AD4-12092] |  |
| 26.212 | Cc1ccc(NS(=O)(=O)c2ccc(NC(=S)NC(=O)CCc3ccccc3)cc2)cc1C [AD4-12103] |  |
| 25.058 | COc1ccc(CC(=O)NC(=S)Nc2ccc(S(=O)(=O)NC(C)(C)C)cc2)cc1 [AD4-12133] |  |
| 26.967 | O=C(CCc1ccccc1)NC(=S)Nc1ccc(S(=O)(=O)N2CCOCC2)cc1 [AD4-12147] |  |
| 26.73 | C=CCN(CC=C)S(=O)(=O)c1ccc(NC(=S)NC(=O)/C=C/c2ccc(F)cc2)cc1 [AD4-12157] |  |
| 26.671 | Cc1cc(C)nc(NS(=O)(=O)c2ccc(NC(=S)NC(=O)C3CCCC3)cc2)n1 [AD4-12163] |  |
| 25.191 | O=C(NC(=S)Nc1ccc(S(=O)(=O)N2CCc3ccccc32)cc1)C1CCCC1 [AD4-12291] |  |
|  | Cc1cc(-c2ccccc2)nc(Nc2nc(C)c3cc(C)c(C)cc3n2)n1 [compound 11309] | ICW Avg: 37.00; ICW 1: 33.31; ICW 2: 40.70 |
|  | CCCc1c[nH]c(Nc2nc(C)c3ccccc3n2)nc1=O [compound 12662] | ICW Avg: 25.21; ICW 1: 21.64; ICW 2: 28.79 |
